Experimental data: patent US10428044B2, “3-amino-1,5,6,7-tetrahydro-4H-indol-4-ones” (Bayer Pharma Aktiengesellschaft, priority 2014, dated 2019)

Biological target: (recombinant) catalytic domain of human Bub1 (amino acids 704-1085) (Homo sapiens (Human), UniProt O43683)
Assay: Bub1 kinase assay (TR-FRET)
Format: biochemical
Settings: ATP 10 μM final, peptide substrate 1 μM final, 60 min at 22° C., read-out: Biological Assay: Bub1 kinase assay median IC50
Method: Examples were tested in selected biological assays one or more times. When tested more than once, data are reported as either average values or as median values, wherein • the average value, also referred to as the arithmetic mean value, represents the sum of the values obtained divided by the number of times tested, and • the median value represents the middle number of the group of values when ranked in ascending or descending order. If the number of values in the data set is odd, the median is the middle value. If the number of values in the data set is even, the median is the arithmetic mean of the two middle values.
To this end, 100-fold concentrated compound solutions (in DMSO) were previously prepared by serial dilution (1:3.4) of 2 mM stocks in a clear low volume 384-well source microtiter plate (Greiner Bio-One, Frickenhausen, Germany), from which 50 nl of compounds were transferred into a black low volume test microtiter plate from the same supplier. […] The resulting mixture (5 μL final volume) was incubated at 22° C. during 60 min., and the reaction was stopped by the addition of 5 μL of an aqueous EDTA-solution (50 mM EDTA, in 100 mM HEPES pH 7.5 and 0.2% (w/v) bovine serum albumin) which also contained the TR-FRET detection reagents (0.2 μM streptavidin-XL665 [Cisbio Bioassays, Codolet, France] and 1 nM anti-phosho-Serine antibody [Merck Millipore, cat. #35-002] and 0.4 nM LANCE EU-W1024 labeled anti-mouse IgG antibody [Perkin-Elmer, product no. AD0077, alternatively a Terbium-cryptate-labeled anti-mouse IgG antibody from Cisbio Bioassays can be used]). The stopped reaction mixture was further incubated 1 h at 22° C. in order to allow the formation of complexes between peptides and detection reagents. Subsequently, the amount of product was evaluated by measurement of the resonance energy transfer from the Eu-chelate-antibody complex recognizing the Phosphoserine residue to the streptavidin-XL665 bound to the biotin moiety of the peptide. […] The data were normalised using two sets of control wells for high- (=enzyme reaction without inhibitor=0%=Minimum inhibition) and low- (=all assay components without enzyme=100%=Maximum inhibition) Bub1 activity. IC50 values were calculated by fitting the normalized inhibition data to a 4-parameter logistic equation (Minimum, Maximum, IC50, Hill; Y=Max+(Min−Max)/(1+(X/IC50)Hill)).

Chain of (recombinant) catalytic domain of human Bub1 (amino acids 704-1085) (O43683 704-1085): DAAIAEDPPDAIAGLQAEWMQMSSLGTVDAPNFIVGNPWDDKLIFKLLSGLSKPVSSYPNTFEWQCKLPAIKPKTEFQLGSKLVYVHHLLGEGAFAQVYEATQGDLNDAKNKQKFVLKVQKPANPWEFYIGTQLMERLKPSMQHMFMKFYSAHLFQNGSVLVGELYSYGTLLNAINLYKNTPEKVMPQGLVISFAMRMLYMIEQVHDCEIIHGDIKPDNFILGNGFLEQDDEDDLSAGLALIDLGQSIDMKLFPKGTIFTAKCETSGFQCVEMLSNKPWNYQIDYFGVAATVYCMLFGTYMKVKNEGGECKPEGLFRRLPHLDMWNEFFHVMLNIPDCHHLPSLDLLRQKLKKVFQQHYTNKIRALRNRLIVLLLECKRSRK

`O=C1CCCc2[nH]c(-c3ccnc(NC(=O)C4CC4)c3)c(Nc3ccccc3)c21` [Example 48, N-{4-[4-oxo-3-(phenylamino)-4,5,6,7-tetrahydro-1H-indol-2-yl]pyridin-2-yl}cyclopropanecarboxamide] and `CC(C)C1CC(=O)c2c([nH]c(-c3ccnc(N)c3)c2Nc2ccccc2)C1` (stereo not drawn) [Example 49, 2-(2-aminopyridin-4-yl)-3-(phenylamino)-6-(propan-2-yl)-1,5,6,7-tetrahydro-4H-indol-4-one] are within 1.5-fold of each other in IC50: 13.5 nM for the first, 13.1 nM for the second.

Compared with `CC(C)C1CC(=O)c2c([nH]c(-c3ccnc(N)c3)c2Nc2cccc(F)c2)C1` (stereo not drawn) [Example 50, 2-(2-aminopyridin-4-yl)-3-[(3-fluorophenyl)amino]-6-(propan-2-yl)-1,5,6,7-tetrahydro-4H-indol-4-one], `CC1(C)CC(=O)c2c([nH]c(-c3ccncc3)c2Nc2cccc(C(F)(F)F)c2)C1` [Example 51, 6,6-dimethyl-2-(pyridin-4-yl)-3-{[3-(trifluoromethyl)phenyl]amino}-1,5,6,7-tetrahydro-4H-indol-4-one] is 3.7-fold higher in IC50: 36.3 nM for the first, 136 nM for the second. The first is the more potent here.

Going from `COc1cccc(Nc2c(-c3ccncc3)[nH]c3c2C(=O)CC(C)(C)C3)c1` [Example 52, 3-[(3-methoxyphenyl)amino]-6,6-dimethyl-2-(pyridin-4-yl)-1,5,6,7-tetrahydro-4H-indol-4-one] to `COc1ccc(Nc2c(-c3ccncc3)[nH]c3c2C(=O)CC(C)(C)C3)cc1` [Example 59, 3-[(4-methoxyphenyl)amino]-6,6-dimethyl-2-(pyridin-4-yl)-1,5,6,7-tetrahydro-4H-indol-4-one], the IC50 rises from 99.8 nM to 422 nM (4.2-fold).

`Cc1ccccc1Nc1c(-c2ccncc2)[nH]c2c1C(=O)CC(C)(C)C2` [Example 53, 6,6-dimethyl-3-[(2-methylphenyl)amino]-2-(pyridin-4-yl)-1,5,6,7-tetrahydro-4H-indol-4-one] and `CC1(C)CC(=O)c2c([nH]c(-c3ccncc3)c2Nc2ccccc2F)C1` [Example 60, 3-[(2-fluorophenyl)amino]-6,6-dimethyl-2-(pyridin-4-yl)-1,5,6,7-tetrahydro-4H-indol-4-one] are within 1.5-fold of each other in IC50: 82.2 nM for the first, 95.2 nM for the second.

`Cc1ccc(Nc2c(-c3ccncc3)[nH]c3c2C(=O)CC(C)(C)C3)cc1` [Example 54, 6,6-dimethyl-3-[(4-methylphenyl)amino]-2-(pyridin-4-yl)-1,5,6,7-tetrahydro-4H-indol-4-one] and `CC1(C)CC(=O)c2c([nH]c(-c3ccncc3)c2Nc2cccnc2)C1` [Example 63, 6,6-dimethyl-2-(pyridin-4-yl)-3-(pyridin-3-ylamino)-1,5,6,7-tetrahydro-4H-indol-4-one] are within 1.5-fold of each other in IC50: 148 nM for the first, 196 nM for the second.

First: CC1(C)CC(=O)c2c([nH]c(-c3ccnnc3)c2Nc2ccccc2)C1 [Example 55, 6,6-dimethyl-3-(phenylamino)-2-(pyridazin-4-yl)-1,5,6,7-tetrahydro-4H-indol-4-one]
Second: CC1(C)CC(=O)c2c([nH]c(-c3ccncc3)c2Nc2ccccc2Cl)C1 [Example 61, 3-[(2-chlorophenyl)amino]-6,6-dimethyl-2-(pyridin-4-yl)-1,5,6,7-tetrahydro-4H-indol-4-one]
The IC50 of the first is 6.6-fold higher: 449 nM for the first, 68.5 nM for the second.

Compared with `COc1cccc(Nc2c(-c3ccncc3)[nH]c3c2C(=O)CC(C)(C)C3)c1OC` [Example 56, 3-[(2,3-dimethoxyphenyl)amino]-6,6-dimethyl-2-(pyridin-4-yl)-1,5,6,7-tetrahydro-4H-indol-4-one], `COc1ccc(Nc2c(-c3ccncc3)[nH]c3c2C(=O)CC(C)(C)C3)c(OC)c1` [Example 62, 3-[(2,4-dimethoxyphenyl)amino]-6,6-dimethyl-2-(pyridin-4-yl)-1,5,6,7-tetrahydro-4H-indol-4-one] is 3.9-fold lower in IC50: 654 nM for the first, 167 nM for the second. The second is the more potent here.

Compound `COc1ccc(Nc2c(-c3ccncc3)[nH]c3c2C(=O)CC(C)(C)C3)cc1OC` [Example 58, 3-[(3,4-dimethoxyphenyl)amino]-6,6-dimethyl-2-(pyridin-4-yl)-1,5,6,7-tetrahydro-4H-indol-4-one] has an IC50 of 20000 nM.
